Measured values published in patent US20110028458A1, “INHIBITION OF CELL MIGRATION BY A FARNESYLATED DIBENZODIAZEPINONE” (THALLION PHARMACEUTICALS INC., priority 2008, published 2011).

Experiments:
ACAT = ACAT enzyme assay, [14C]cholesterol ester quantitation; type: biochemical, rat; details: 10 μM
From the text: (§1) The procedures used were based on known assays: ACAT (from rat; Ref: Largis et al (1989), J. Lipid. Res., vol 30, 681-689), COX-2 (human; Ref: Riendeau et al (1997), Can. J. Physiol. Pharmacol., vol 75, 1088-1095 and Warner et al (1999), Pro. Natl. Acad Sci. USA, vol 96, 7563-7568), 5-LO (human; Ref: Carter et al (1991), J. Pharmacol. Exp. Ther., vol 256, no 3, 929-937, and Safayhi et al (2000), Planta Medica, vol 66, 110-113), PBR (from rat; Le Fur et al (1983), Life Sci. USA, vol 33, 449-457), CysLT1 (human; Martin et al (2001), Biochem. Pharmacol., vol 62, no 9, 1193-1200) and CBR (from rat; Damm et al (1978), Res. Comm. Chem. Pathol. Pharmacol., vol 22, 597-600 and Speth et al (1979), Life Sci., vol 24, 351-357).
Binding assays were done for each of Compounds 1-12 and 46 using ACAT, COX-2, 5-LO, PBR and CysLT1 enzymes. The procedures used are based on the respective references mentioned above and the conditions are summarized in Tables 1 (enzyme assays) and 2 (radioligand receptor assays).
(§2) Binding Assays were done at constant concentration of the compound, in 1% DMSO as vehicle, and are specified below each enzyme/receptor type in Table 3. Significance was obtained when a result was ≧50% binding or inhibition (underlined).

[1] = tested on: central benzodiazepine receptor (CBR; GABAA); experiment: CBR (GABAA) radioligand binding assay, [3H]flunitrazepam, rat brain; details: 10 μM
From the text: as §1, §2
As Compound 1 was isolated from structural prediction through genetic analysis and activity identified through in vitro cytotoxic assays, its molecular target(s) were unknown at the time of discovery. Based on the structural characteristics of TLN-4601, we first investigated its binding affinity to the central (GABAA; CBR;) and peripheral (PBR) benzodiazepine receptors. The effect of TLN-4601 on CBR (GABAA) and PBR was initially evaluated in a radioligand-binding assay at MDS Pharma Services (Taipei, Tawain). CBR and PBR were obtained from rat brain and heart membrane-fractions, respectively. Displacement assays were done in the presence of 1 nM [^3H]-Flunitrazepam (CBR; GABAA) or 0.3 nM of [^3H]-PK11195 (PBR). TLN-4601 was tested at 0.01, 0.1, 0.5, 1, 5 and 10 μM. Non-specific binding was estimated in the presence of 10 μM diazepam (CBR) or 100 μM dipyrimadole (PBR) and assays were performed according to previous described methods (Damm et al Res Commun Chem Pathol Pharmacol 22, pp 597-600; Le Fur et al (1983) Life Science 33, pp 449-57). […] This contrats with current specific PBR ligands, which bind the PBR with nanomolar affinity yet their effect on cell proliferation, is in the micromolar range.

SRBC = experiment: Hemolysis of SRBC; type: cell-based
[2] = tested on: MDA-MB-231 (mammary gland adenocarcinoma); experiment: In vitro cytotoxic activity, propidium iodide, MDA-MB-231; type: cell-based, human; details: 96 hrs
[3] = tested on: PC-3 (prostate adenocarcinoma); experiment: In vitro cytotoxic activity, propidium iodide, PC-3; type: cell-based, human; details: 96 hrs
SF268 (CNS) = experiment: In vitro cytotoxic activity, propidium iodide, SF-268; type: cell-based, human; details: 96 hrs
[4] = tested on: HT-29 (colorectal carcinoma); experiment: In vitro cytotoxic activity, propidium iodide, HT-29; type: cell-based, human

| Compound | Percentage of inhibition or binding activity, ACAT (ACAT) [%] | Percentage of inhibition or binding activity, CBR [1] [%] | Hemolysis ED50 (concentration necessary to achieve 50% hemolysis of SRBC) (SRBC) [µg/mL] | GI50 [2] [µM] | GI50 [3] [µM] | GI50 (SF268 (CNS)) [µM] | GI50 ([4]; 96 hrs) [µM] | GI50 ([4]; Homo sapiens, HT-29, 96 h) [µM] |
| --- | --- | --- | --- | --- | --- | --- | --- | --- |
| COc1cc(OC)c2c(c1)N(CC=C(C)CCC=C(C)CCC=C(C)C)C(=O)c1cccc(OC)c1N2 [Compound 8] | 40 | 1 | – | – | – | – | – | – |
| COc1cccc2c1Nc1c(O)cc(O)cc1N(C/C=C(\C)CC/C=C(\C)CCC=C(C)C)C2=O [Compound 4] | – | 12 | >64 | – | – | – | – | – |
| [2H]C([2H])([2H])N1c2c(O)cccc2C(=O)N(C/C=C(\C)CC/C=C(\C)CCC=C(C)C)c2cc(O)cc(O)c21 [Compound 98] | – | – | 4.5 | – | – | – | – | – |
| COc1cc(O)cc2c1Nc1c(O)cccc1C(=O)N2C/C=C(\C)CC/C=C(\C)CCC=C(C)C [Compound 5] | 60 | 21 | >64 | – | – | – | – | – |
| CC(C)=CCCC1(C)OC1CC/C(C)=C/CN1C(=O)c2cccc(O)c2Nc2c(O)cc(O)cc21 (stereo not shown) [Compound 17] | – | – | 35.0 | > 30 | 18.7 | 13.4 | > 30 | – |
| CC(C)=CCC/C(C)=C/CC/C(C)=C/CN1C(=O)c2cccc(O)c2N(C)c2c(O)cc(O)cc21 [Compound 2] | 51 | 22 | 5.12 | – | – | – | – | – |
| COc1cc(OC)c2c(c1)N(C/C=C(\C)CC/C=C(\C)CCC=C(C)C)C(=O)c1cccc(O)c1N2 [Compound 6] | – | 14 | >64 | – | – | – | – | > 30 |
| CCCN1c2c(O)cccc2C(=O)N(C/C=C(\C)CC/C=C(\C)CCC=C(C)C)c2cc(O)cc(O)c21 [Compound 63] | – | – | >64 | – | – | – | – | – |
| CC(=O)Oc1cccc2c1Nc1c(OC(C)=O)cc(O)cc1N(CC=C(C)CCC=C(C)CCC=C(C)C)C2=O [Compound 10] | 90 | 5 | >64 | 1.55 | 1.35 | 2.02 | 13 | – |
| CCN1c2c(O)cccc2C(=O)N(C/C=C(\C)CC/C=C(\C)CCC=C(C)C)c2cc(O)cc(O)c21 [Compound 14] | – | – | 43.9 | 2.16 | 1.15 | 0.76 | 2.04 | – |
| CC(C)=CCCC(C)(O)CCC/C(C)=C/CN1C(=O)c2cccc(O)c2Nc2c(O)cc(O)cc21 (stereo not shown) [Compound 89] | – | – | >64 | – | – | – | – | > 30 |
| CC(=O)NC(C)(CCC=C(C)C)CCC/C(C)=C/CN1C(=O)c2cccc(O)c2Nc2c(O)cc(O)cc21 (stereo not shown) [Compound 92] | – | – | >64 | – | – | – | – | > 30 |
| COC(C)(C)CCC/C(C)=C/CC/C(C)=C/CN1C(=O)c2cccc(O)c2Nc2c(O)cc(O)cc21 [Compound 82] | – | – | >64 | – | – | – | – | – |
| CCC(C)N1c2c(O)cccc2C(=O)N(C/C=C(\C)CC/C=C(\C)CCC=C(C)C)c2cc(O)cc(O)c21 (stereo not shown) [Compound 77] | – | – | 60.9 | – | – | – | – | – |
| C/C(=C\CN1C(=O)c2cccc(O)c2Nc2c(O)cc(O)cc21)CC/C=C(\C)CCC1OC1(C)C (stereo not shown) [Compound 18] | – | – | >64 | > 30 | > 30 | 7.45 | > 30 | – |
| CCN1c2c(O)cccc2C(=O)N(C/C=C(\C)CC/C=C(\C)CCCC(C)(C)OC)c2cc(O)cc(O)c21 [Compound 85] | – | – | >64 | – | – | – | – | – |
| COc1cccc2c1Nc1c(OC)cc(O)cc1N(CC=C(C)CCC=C(C)CCC=C(C)C)C2=O [Compound 7] | 95 | 21 | >64 | 17.4 | 14.6 | 18.5 | 14.1 | – |
| COC(C)(CCC=C(C)C)CCC/C(C)=C/CN1C(=O)c2cccc(O)c2N(C)c2c(O)cc(O)cc21 (stereo not shown) [Compound 80] | – | – | >64 | – | – | – | – | – |
| CC(C)=CCC/C(C)=C/CC/C(C)=C/CN1C(=O)c2cccc(O)c2N(C)c2c(O)cc(O)cc21 [Compound 98] | – | – | – | 0.51 | 0.82 | 0.16 | 0.69 | – |
| CC(=O)Oc1cc(O)c2c(c1)N(CC=C(C)CCC=C(C)CCC=C(C)C)C(=O)c1cccc(OC(C)=O)c1N2 [Compound 11] | 71 | 20 | 9.8 | 7.72 | 5.35 | 5.79 | 16 | – |
| COC(C)(C)CCCC(C)(CCC/C(C)=C/CN1C(=O)c2cccc(O)c2Nc2c(O)cc(O)cc21)OC (stereo not shown) [Compound 84] | – | – | >32 | – | – | – | – | – |
| CCCCN1c2c(O)cccc2C(=O)N(C/C=C(\C)CC/C=C(\C)CCC=C(C)C)c2cc(O)cc(O)c21 [Compound 64] | – | – | >64 | – | – | – | – | – |
| CCCCCCN1c2c(O)cccc2C(=O)N(C/C=C(\C)CC/C=C(\C)CCC=C(C)C)c2cc(O)cc(O)c21 [Compound 67] | – | – | >64 | – | – | – | – | – |
| COC(C)(CCC=C(C)C)CCC/C(C)=C/CN1C(=O)c2cccc(O)c2Nc2c(O)cc(O)cc21 (stereo not shown) [Compound 83] | – | – | 12.4 | – | – | – | – | – |
| CCN1c2c(O)cccc2C(=O)N(CC=C(C)CCCC(C)(CCCC(C)(C)OC)OC)c2cc(O)cc(O)c21 (stereo not shown) [Compound 87] | – | – | >64 | 2.4 | 1.39 | 0.91 | 1.83 | – |
| CC(C)CCCC(C)CCCC(C)CCN1C(=O)c2cccc(O)c2Nc2c(O)cc(O)cc21 (stereo not shown) [Compound 46] | 8 | 27 | 13.9 | – | – | – | – | – |
| CC(C)CCCC(C)CCCC(C)CCN1C(=O)c2cccc(O)c2N(C)c2c(O)cc(O)cc21 (stereo not shown) [Compound 78] | – | – | 9.89 | – | – | – | – | – |
| CC(C)=CCC/C(C)=C/CC/C(C)=C/CN1C(=O)c2cccc(O)c2N(Cc2ccccc2)c2c(O)cc(O)cc21 [Compound 3] | 63 | 10 | >64 | – | – | – | – | – |
